According to article PMC7375240, “Covalent Inhibitors Allosterically Block the Activation of Rho Family Proteins and Suppress Cancer Cell Invasion” (Advanced Science, 2020):

Key:
[1] = molecular target: T1, Rac1 (Homo sapiens, UniProt P63000); test: pull-down of Rac1 with its GEF; type: binding; conditions: Rac1-GEF interaction (GEF probably murine Tiam1 […]-1406), pH […]
T1 construct: full length, His6-tagged (pET28a), E. coli BL21(DE3)

[2] = molecular target: T2, Cdc42 (Homo sapiens, UniProt P60953); test: pull-down of Cdc42 with its GEF; type: binding; conditions: Cdc42-GEF interaction (GEF probably human intersectin1 […]-1571), pH […]
T2 construct: full length, His6-tagged (pET28a), E. coli BL21(DE3)
T2 sequence (P60953 whole entry): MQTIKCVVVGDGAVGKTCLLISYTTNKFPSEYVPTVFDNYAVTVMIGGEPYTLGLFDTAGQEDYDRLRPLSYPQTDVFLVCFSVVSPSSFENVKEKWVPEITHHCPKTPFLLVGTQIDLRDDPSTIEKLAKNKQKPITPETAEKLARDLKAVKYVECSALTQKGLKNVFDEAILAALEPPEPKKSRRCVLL

For `C=CCOC(=O)C1=CS(=O)(=O)c2ccccc21` [DC-RC-063, DC-Rhoin], the “pull-down of Rac1 with its GEF” value [1] was “selectively inhibited the interactions between Rho family proteins (RhoA, Cdc42, and Rac1)” and the “pull-down of Cdc42 with its GEF” value [2] was “selectively inhibited the interactions between Rho family proteins (RhoA, Cdc42, and Rac1)”.
